Experimental findings from patent US20030118985A1, “Mouse monoclonal antibody (5-21-3) to human immunodeficiency virus gp41 protein” (priority 1997, published 2003) are described below.

Experiment [1] relates to monoclonal antibody 10-15-63. Put plainly: Immuno-dot blot of synthetic peptides with 10-15-63. Format: binding, mouse. The settings on record: 25 ug/ml 10-15-63. The text has this: (§1) The western Blot procedure described in Example 1 was employed for development of immuno-dot blots using synthetic peptides, except that synthetic peptides were fixed to nitrocellulose by direct application using Drummond lambda pipettes, and air dried prior to blocking with 20% fetal calf serum in PBS (pH 7.4).

Experiment [2] has as its system mouse (M) anti-rp41 serum. In words: Immuno-dot blot of synthetic peptides with mouse anti-rp41 serum. The settings on record: 2% serum. Format: binding.
Description: as §1

Experiment [3] relates to monoclonal antibody 5-21-3. In words: Immuno-dot blot of synthetic peptides with 5-21-3. Format: binding, mouse. The settings on record: 25 ug/ml 5-21-3; peptide spotted on nitrocellulose.
Description: as §1

In experiment [4] the test system is binding of antibody 5-21-3 to rp41. In words: Binding inhibition assay: peptides inhibit binding of 5-21-3 to rp41. Set-up: species or system HIV I. As to the method:
Additional evidence for the conformationl nature of the 5-21-3 epitope was obtained using binding inhibition studies, in which synthetic peptides were ranked for their ability to inhibit binding of 5-21-3 to rp41. First, the Fab dimer of an anti-gp41 monoclonal antibody was prepared by conventional methods (Goding et al., supra). Then 100 ul of a 1 mg/ml solution of the Fab dimer in bicarbonate buffer (pH 9.6) was coated onto Immulon II microtiter plates for 1 hr at 37° C. After washing with PBS containing 0.05% Tween 20, the plates were overcoated with 200 ul of 1.0% ovalbumin in bicarbonate buffer (pH 9.6) for 1 hr at 30° C. After washing, 100 ul of rp41 enriched E. coli lysate (as described in Example 3), diluted appropriately in PBS containing 0.05% Tween 20, were allowed to bind to the Fab dimer for 2 hr at 30° C. The plates were washed and stored at 4° C.
Intact monoclonal antibody 5-21-3 IgG (purified from tissue culture fluid supporting growth of the cloned cell line 5-21-3) was titrated against the bound rp41 on the plate, and an antibody concentration was selected which yielded an A492 value of 2.0-3.0. Usually, 0.4 pmol (0.06 ug) of 5-21-3 IgG per microtiter well was employed in these assays. Stock solutions of 5-21-3 IgG were prepared in PBS containing 0.1% Triton X-100 and 0.1% SDS. Dilutions of synthetic peptides were made in the same buffer (SDS was included in these experiments to keep peptides soluble at high concentrations).
The binding inhibition assay was performed by combining 0.15 ml of 1.2 ug/ml 5-21-3 antibody stock solution with 0.15 ml of peptide at a selected peptide concentration, and incubating the reaction mixture 1 hr at room temp. Then 0.1 ml aliquots of each reaction mixture were added to each of two wells in the microtiter tray. After a 1 hr incubation at room temp., the plates were washed, and HRPO conjugated Goat anti-mouse IgG Fc was added for 1 hr at room temp. The plates were washed, and addition of OPD for color development identified the relative amounts of 5-21-3 bound to rp41 in the microtiter wells. The reaction was stopped by addition of 100 ul of 1N H2SO4, and the plates were read on a Dynatech II microtiter plate reader.

The subject of experiment [5] is Rabbit (R) anti-P58-130 serum. In words: Immunoprecipitation of [125I] synthetic peptides by rabbit anti-P58-130 serum. In kind it is binding. The settings on record: for SPECIFIC PRECIPITATION (CPM) by RαP58-130 / x-fold increase of specific over non-specific precipitation, RαP58-130: rabbit anti-P58-130 serum 20 ul/0.2 ml. As to the method:
(§2) Synthetic peptides were radiolabeled with ^125I (Amersham) by the chloramine T method (N. M. Hunter, “Radioimmunoassay” in D. M. Weir, Ed., Handbook of Experimental Immunology, [Blackwell Scientific Publications, 1973]). Generally, 2-6 ul of 100 mCi/ml ^125I were added to 10-50 ug of peptide in PBS, pH 7.4. Approximately 10 ug of freshly prepared (1 mg/ml in PBS) chloramine T were added to the mixture maintained at 4° C. After 5 min., [^125I]peptide was separated from free ^125I by passage of the reaction mixture through a 3 ml (bed volume) column of Biogel P-6 or P-2, as required. Fractions (200 ul each) containing [^125I]peptide were pooled and diluted into PBS containing 20% fetal calf serum. Rough estimations of ^125I cpm bound to peptide were made by acid precipitation. An aliquot of labeled peptide was diluted into 1 ml of ice cold 50% trichloroacetic acid (TCA) overlaying a 0.45 um filter (made of mixed cellulose esters) set on a scintered glass filter connected to a vacuum apparatus. Precipitated protein was fixed onto the filter by application of vacuum, and filters were washed with ice-cold 50% TCA. Background cpm adhering non-specifically to the filter were estimated by repeating the procedure using a non-precipitating buffer. Amounts of peptide, ^125I, chloramine T, and composition of column eluting buffer were subject to change depending on conditions required to maintain solubility of each peptide.
(§3) Synthetic peptides radiolabeled with ^125I were diluted into PBS (pH 7.4) containing 0.1% Triton X-100 (or other detergents where indicated) and 1.0% BSA, to yield approximately 2.5-5×10^5 acid-precipitable cpm per 0.1 ml. Purified monoclonal IgG 5-21-3 and 10-15-63 were employed in the assay. Monoclonal antibodies were diluted into PBS containing 0.1% Triton X-100 (or other detergents where indicated), 1.0% BSA, and 2% normal mouse serum as a carrier immunoglobulin. Immune rabbit serum (anti-P58-130) was diluted appropriately into the same buffer except that normal rabbit serum (2%) was substituted for normal mouse serum as the carrier immunoglobulin. A reaction mixture comprising 0.1 ml [^125I] peptide (5×10^5 cpm/0.1 ml) and 0.1 ml diluted antibody was incubated 1 hr at 40° C., followed by addition of 0.1 ml of a precipitating antibody, either goat anti-mouse IgG, or goat anti-rabbit IgG, corresponding to the primary antibody. The reaction mixture was incubated 1 hr at 40° C. and then overnight at 4° C. […] Precipitation assays employing Protein A-Sepharose as the precipitating reagent were performed in a similar manner, except that normal sera were omitted from the reaction mixtures.

The subject of experiment [6] is monoclonal antibody 5-21-3. Put plainly: Immunoprecipitation of [125I] synthetic peptides by 5-21-3. Format: binding, mouse. The settings on record: for SPECIFIC PRECIPITATION (CPM) by 5-21-3 / x-fold increase of specific over non-specific precipitation, 5-21-3: 5-21-3 10 μg/0.2 ml. As to the method:
as §2, §3

Experiment [7] has as its system monoclonal antibody 10-15-63. Put plainly: Immunoprecipitation of [125I] synthetic peptides by 10-15-63. In kind it is binding, mouse. The settings on record: for SPECIFIC PRECIPITATION (CPM) by 10-15-63 / x-fold increase of specific over non-specific precipitation, 10-15-63: 10-15-63 10 μg/0.2 ml. The procedure:
as §2, §3

Experiment [8] has as its system Rabbit (R) anti-P58-130 serum. In words: Immuno-dot blot of synthetic peptides with rabbit anti-P58-130 serum. In kind it is binding. The settings on record: 2% serum.
Description: as §1

[9] abbreviates: PBS, 0.1% Triton X-100, 1.0% BSA, carrier serum, second antibody precipitation.
The mark [10] stands for this setting: second antibody precipitation, vs normal mouse IgG.
Where [11] appears, read: detergent-rich buffer, Protein A-Sepharose.

“Also recorded” adds a separate entry of the source.

As to “ARILAVERYLKDQQLLGIWGCSGKLICTTAVPWNASWSNKSLEQIWNNMTWMEWDREINNYSLIHSLIEESQNQQEKNELLELNK [P67-154]”, the “immuno-dot blot reactivity with 10-15-63” value in experiment [1] is on record as “Little or no reactivity”. Also, the “immuno-dot blot reactivity with mouse anti-rp41 serum” value in experiment [2] was “Strong reactivities”. Besides, in experiment [3], the “immuno-dot blot reactivity with 5-21-3” value is on record as “very strong reaction”. Further, the “inhibition of 5-21-3 binding to rp41, in words” value in experiment [4] is “potent inhibitor; also recorded: most potent inhibitor”. In addition, in experiment [4] (mean of two experiments, 0.4 pmol 5-21-3 IgG per well), the “Molar Ratio at 50% inhibition of 5-21-3 binding” value is 72.7 pmoles peptide/pmoles 5-21-3. The “precipitation of [125I]peptide by rabbit anti-P58-130, in words” value in experiment [5] is reported as “strong precipitator”. Further, in experiment [5] (second antibody precipitation), the “SPECIFIC PRECIPITATION (CPM) by RαP58-130” value is given as 479,343 CPM. Further, in experiment [5] (second antibody precipitation, vs normal rabbit serum), the “x-fold increase of specific over non-specific precipitation, RαP58-130” value is on record as “(4.4) x-fold”. The “binding of [125I]peptide by 5-21-3 (immunoprecipitation), in words” value in experiment [6] was “readily bound”. The “SPECIFIC PRECIPITATION (CPM)” value in experiment [6] (5-21-3 1.0 μg/ml final) is recorded as 165,781 CPM; in experiment [6] (5-21-3 10.0 μg/ml final) it was 441,887 CPM; in experiment [6] (5-21-3 100.0 μg/ml final), 659,045 CPM; in experiment [7] (10-15-63 1.0 μg/ml final) it was 0 CPM; in experiment [7] (10-15-63 10.0 μg/ml final) it was 0 CPM; in experiment [7] (10-15-63 100.0 μg/ml final) it was 0 CPM. Further, the “x-fold increase of specific over non-specific precipitation” value is given as “(3.6) x-fold” in experiment [6] (5-21-3 1.0 μg/ml final); “(8.5 x-fold” in experiment [6] (5-21-3 10.0 μg/ml final); “(8.0) x-fold” in experiment [6] (5-21-3 100.0 μg/ml final); “(0) x-fold” in experiment [7] (10-15-63 1.0 μg/ml final); “(0) x-fold” in experiment [7] (10-15-63 10.0 μg/ml final); “(0) x-fold” in experiment [7] (10-15-63 100.0 μg/ml final). The “SPECIFIC PRECIPITATION (CPM) by 5-21-3” value in experiment [6] (setting [9]) was 479,207 CPM. In addition, in experiment [6] (setting [10]), the “x-fold increase of specific over non-specific precipitation, 5-21-3” value is listed as “(16) x-fold”. The “5-21-3 concentration required to demonstrate binding of the peptide” value in experiment [6] (immunoprecipitation, Table 5) is not above 1 µg/mL. Moreover, in experiment [7] (setting [9]), the “SPECIFIC PRECIPITATION (CPM) by 10-15-63” value amounted to 9713 CPM. Besides, the “x-fold increase of specific over non-specific precipitation, 10-15-63” value in experiment [7] (setting [10]) is reported as “(1.3) x-fold”. Further, the “immuno-dot blot reactivity with rabbit anti-P58-130 serum” value in experiment [8] was “Strong reactivities”.

As to “H-TVWGIKELQARILAVERYLKDQQLLGIWGCSGKLICTTAVPWNASWSNKSLEQIWNNMTWMEWDREINNYTSL-OH [P58-130]”, the “immuno-dot blot reactivity with 10-15-63” value in experiment [1] was “Little or no reactivity”. Moreover, the “immuno-dot blot reactivity with mouse anti-rp41 serum” value in experiment [2] is reported as “Strong reactivities”. The “immuno-dot blot reactivity with 5-21-3” value in experiment [3] was “did not react”. Besides, in experiment [4], the “inhibition of 5-21-3 binding to rp41, in words” value is “no detectable inhibition”. Further, the “precipitation of [125I]peptide by rabbit anti-P58-130, in words” value in experiment [5] is listed as “strong precipitator”. In addition, in experiment [5] (setting [11]), the “SPECIFIC PRECIPITATION (CPM) by RαP58-130” value is recorded as 286,722 CPM and the “x-fold increase of specific over non-specific precipitation, RαP58-130” value was “(32) x-fold”. The “binding of [125I]peptide by 5-21-3 (immunoprecipitation), in words” value in experiment [6] is recorded as “unable to bind”. In addition, the “SPECIFIC PRECIPITATION (CPM) by 5-21-3” value in experiment [6] (detergent-rich buffer (0.1% Triton X-100, 1.0% sodium deoxycholate, 0.1% SDS), Protein A-Sepharose) worked out at 0 CPM. The “x-fold increase of specific over non-specific precipitation, 5-21-3” value in experiment [6] (setting [11]) is on record as “(<1) x-fold”. In experiment [7] (setting [11]), the “SPECIFIC PRECIPITATION (CPM) by 10-15-63” value came to 0 CPM and the “x-fold increase of specific over non-specific precipitation, 10-15-63” value is listed as “(<1) x-fold”. For the same substance, in experiment [8], the “immuno-dot blot reactivity with rabbit anti-P58-130 serum” value is given as “Strong reactivities”.
